The text below walks through data of patent US20220370440A1 (Lead Discovery Center GmbH, priority 2018, published 2022).

One series has as its target T1, HER2 INS YVMA (Homo sapiens, UniProt P04626, INS775YVMA).
T1 construct: purchased DPF
As to the kind of experiment: Lance Kinase Activity Assay, HER2 INS YVMA (Her2 Exon 20 INSYVMA Lance). Type of series: biochemical. The conditions noted are these: biochemical Lance assay. In outline: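 IC50 was fitted to sigmoidal curves of TR-FRET signal (665 and 615 nm emission after 340 nm excitation) from an Eu anti-phospho antibody binding the phosphorylated ULight peptide. The ATP-started reaction ran 1 h at RT and was then quenched with 10 mM EDTA plus antibody for a further 1 h. Compounds were tested as 8-point, 3-fold dilutions.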

The target of series [1] is Her2 Exon 20 INSYVMA Ba/F3 (Homo sapiens, UniProt P04626, DUP772-775, cells depend on it). As to the kind of experiment: Her2 Exon 20 INSYVMA Ba/F3 CellTiter-Glo. Format: cell-based. The conditions noted are these: CellTiter-Glo, 72 h, read-out: Her2 Exon 20 INSYVMA Ba/F3 CTG IC50. In outline:
(§1)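 Seed Ba/F3 cells; 24 h, 37 °C/5% CO2. Add cpds in DMSO, multiple concs; 72 h. CellTiter-Glo, 10 min RT, luminescence. IC50 by curve fit. Z′ ≥0.5 from DMSO vs 10 μM staurosporine.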

The target of series [2] is EGFR Exon 20 INSNPH Ba/F3 (Homo sapiens, UniProt P00533, DUP771-773, cells depend on it). As to the kind of experiment: EGFR Exon 20 INSNPH Ba/F3 CellTiter-Glo. Format: cell-based. To be noted: CellTiter-Glo, 72 h, read-out: EGFR Exon 20 INSNPH Ba/F3 CTG IC50. In outline:
as §1

Another series deals with EGFR T790ML858R (Homo sapiens, UniProt P00533, L858R/T790M). The series is described as follows: EGFR T790ML858R Lance assay. Type of series: biochemical. Here is the method:
(§2) Inhibition is indicated as […] [nM] (“−”=not measured). Compounds having an activity designated as “A” provided an IC50≤100 nM; compounds having an activity designated as “B” provided an 100 nM<IC50≤500 nM; compounds having an activity designated as “C” provided an 500 nM<IC50≤1000 nM; compounds having an activity designated as “D” provided an 1000 nM<IC50≤100000 nM; and compounds having an activity designated as “E” provided an IC50>10000 nM.

The target of the next series is EGFR wt (Homo sapiens, UniProt P00533). The series is described as follows: EGFR wt Lance assay. Type of series: biochemical. Here is the method:
as §2

The subject of the next series is H1975. The series is described as follows: H1975 CellTiter-Glo. Type of series: cell-based. The conditions noted are these: Homo sapiens, NCI-H1975; 72 h compound incubation; read-out: H1975 CTG IC50. In outline: (§3)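 ATP-based luminescent viability read after 72 h compound exposure (DMSO vehicle, range of concentrations), cells plated 24 h beforehand at 37° C, 5% CO2. IC50 by dose-response fitting; 10 μM Staurosporine and DMSO controls, Z′-factor ≥0.5 required.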
(Cellular ATP, detected with luciferase, serves as a proxy for viable cell number.)

The next series relates to A431. As to the kind of experiment: A431 CellTiter-Glo. Type of series: cell-based. To be noted: Homo sapiens, A-431; 72 h compound incubation; read-out: A431 CTG IC50. In outline: as §3
Series [3] in a line: Metabolic stability in mouse liver microsomes without cofactor NADPH. Type of series: in vitro ADME. The conditions noted are these: 3 μM test compound, mouse liver microsomes, without NADPH, 50 min, 37° C., LC-MS/MS. The gist of the method: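 Cofactor-free incubation: no NADPH added to mouse liver microsomes, with compound at 3 μM and 37° C. Remaining parent was quantified by LC-MS/MS at time points up to 50 minutes to track depletion.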
On the technique in general: Microsomes from liver hold many membrane-bound enzymes, among them those of drug oxidation.

T1 sequence (P04626 with tags, fused parts or gaps INS775YVMA): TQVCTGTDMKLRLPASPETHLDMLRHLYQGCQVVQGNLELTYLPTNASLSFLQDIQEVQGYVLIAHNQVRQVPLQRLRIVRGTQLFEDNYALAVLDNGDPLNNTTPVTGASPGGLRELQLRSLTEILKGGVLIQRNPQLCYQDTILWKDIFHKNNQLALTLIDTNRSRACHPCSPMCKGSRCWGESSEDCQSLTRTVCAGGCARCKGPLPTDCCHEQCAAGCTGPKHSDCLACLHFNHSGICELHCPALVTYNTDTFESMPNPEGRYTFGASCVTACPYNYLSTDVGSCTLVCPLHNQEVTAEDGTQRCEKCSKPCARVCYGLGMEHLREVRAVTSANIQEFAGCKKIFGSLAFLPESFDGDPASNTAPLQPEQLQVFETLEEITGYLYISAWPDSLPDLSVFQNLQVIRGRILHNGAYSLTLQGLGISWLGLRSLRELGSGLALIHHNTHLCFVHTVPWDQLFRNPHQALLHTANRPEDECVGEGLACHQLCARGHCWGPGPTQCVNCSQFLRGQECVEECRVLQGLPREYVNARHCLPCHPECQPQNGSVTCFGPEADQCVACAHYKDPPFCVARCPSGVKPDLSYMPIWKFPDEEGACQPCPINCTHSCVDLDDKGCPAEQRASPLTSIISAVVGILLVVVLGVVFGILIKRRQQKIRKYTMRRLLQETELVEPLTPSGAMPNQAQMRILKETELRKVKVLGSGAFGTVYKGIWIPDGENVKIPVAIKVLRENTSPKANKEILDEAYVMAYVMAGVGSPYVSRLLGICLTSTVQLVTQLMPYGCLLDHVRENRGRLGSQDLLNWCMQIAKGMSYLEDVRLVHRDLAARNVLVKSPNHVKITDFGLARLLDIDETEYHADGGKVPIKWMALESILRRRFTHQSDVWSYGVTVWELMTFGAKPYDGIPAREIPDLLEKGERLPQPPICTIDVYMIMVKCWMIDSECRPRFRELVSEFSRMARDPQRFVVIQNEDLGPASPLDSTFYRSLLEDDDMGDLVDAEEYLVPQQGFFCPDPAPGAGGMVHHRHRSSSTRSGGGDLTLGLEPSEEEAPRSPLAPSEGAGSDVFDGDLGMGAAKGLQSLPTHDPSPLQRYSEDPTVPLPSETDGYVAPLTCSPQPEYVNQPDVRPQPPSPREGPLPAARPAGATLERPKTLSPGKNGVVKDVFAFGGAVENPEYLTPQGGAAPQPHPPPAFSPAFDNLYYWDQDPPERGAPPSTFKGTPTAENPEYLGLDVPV
Sequence of Her2 Exon 20 INSYVMA Ba/F3 (P04626 with tags, fused parts or gaps DUP772-775): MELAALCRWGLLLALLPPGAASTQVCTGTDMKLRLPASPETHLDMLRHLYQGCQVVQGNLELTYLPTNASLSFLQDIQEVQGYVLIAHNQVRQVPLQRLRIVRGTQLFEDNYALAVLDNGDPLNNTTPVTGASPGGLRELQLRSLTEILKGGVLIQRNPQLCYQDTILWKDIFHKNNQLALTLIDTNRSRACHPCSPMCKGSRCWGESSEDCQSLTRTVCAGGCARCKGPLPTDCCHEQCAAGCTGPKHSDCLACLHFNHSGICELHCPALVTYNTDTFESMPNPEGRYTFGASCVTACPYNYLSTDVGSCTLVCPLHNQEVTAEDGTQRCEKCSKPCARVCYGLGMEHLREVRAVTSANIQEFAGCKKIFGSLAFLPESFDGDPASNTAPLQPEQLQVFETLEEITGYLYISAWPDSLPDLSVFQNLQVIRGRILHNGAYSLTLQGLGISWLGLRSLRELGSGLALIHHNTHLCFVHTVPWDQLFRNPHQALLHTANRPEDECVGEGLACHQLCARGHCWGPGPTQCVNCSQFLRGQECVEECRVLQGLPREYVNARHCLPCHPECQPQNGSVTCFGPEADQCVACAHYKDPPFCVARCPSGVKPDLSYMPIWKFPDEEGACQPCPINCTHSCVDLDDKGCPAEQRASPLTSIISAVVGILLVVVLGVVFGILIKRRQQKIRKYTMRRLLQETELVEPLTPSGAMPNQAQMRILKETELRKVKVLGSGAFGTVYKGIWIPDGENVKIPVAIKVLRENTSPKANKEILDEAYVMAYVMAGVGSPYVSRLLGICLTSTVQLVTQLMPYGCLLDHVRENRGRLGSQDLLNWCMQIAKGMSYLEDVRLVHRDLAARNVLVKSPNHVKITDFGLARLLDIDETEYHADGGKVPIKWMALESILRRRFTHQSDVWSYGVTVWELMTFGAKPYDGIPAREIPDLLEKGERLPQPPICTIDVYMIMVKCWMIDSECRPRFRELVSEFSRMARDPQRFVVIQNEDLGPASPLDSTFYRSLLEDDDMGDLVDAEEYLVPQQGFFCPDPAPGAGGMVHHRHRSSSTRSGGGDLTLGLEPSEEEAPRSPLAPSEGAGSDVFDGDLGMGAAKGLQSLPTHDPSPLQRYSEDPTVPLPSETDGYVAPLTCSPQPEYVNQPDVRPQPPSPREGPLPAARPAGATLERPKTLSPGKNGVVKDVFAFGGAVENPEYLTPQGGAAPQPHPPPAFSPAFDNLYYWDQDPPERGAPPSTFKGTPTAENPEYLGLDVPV
Sequence of EGFR T790ML858R (P00533 25-1210 T790M/L858R): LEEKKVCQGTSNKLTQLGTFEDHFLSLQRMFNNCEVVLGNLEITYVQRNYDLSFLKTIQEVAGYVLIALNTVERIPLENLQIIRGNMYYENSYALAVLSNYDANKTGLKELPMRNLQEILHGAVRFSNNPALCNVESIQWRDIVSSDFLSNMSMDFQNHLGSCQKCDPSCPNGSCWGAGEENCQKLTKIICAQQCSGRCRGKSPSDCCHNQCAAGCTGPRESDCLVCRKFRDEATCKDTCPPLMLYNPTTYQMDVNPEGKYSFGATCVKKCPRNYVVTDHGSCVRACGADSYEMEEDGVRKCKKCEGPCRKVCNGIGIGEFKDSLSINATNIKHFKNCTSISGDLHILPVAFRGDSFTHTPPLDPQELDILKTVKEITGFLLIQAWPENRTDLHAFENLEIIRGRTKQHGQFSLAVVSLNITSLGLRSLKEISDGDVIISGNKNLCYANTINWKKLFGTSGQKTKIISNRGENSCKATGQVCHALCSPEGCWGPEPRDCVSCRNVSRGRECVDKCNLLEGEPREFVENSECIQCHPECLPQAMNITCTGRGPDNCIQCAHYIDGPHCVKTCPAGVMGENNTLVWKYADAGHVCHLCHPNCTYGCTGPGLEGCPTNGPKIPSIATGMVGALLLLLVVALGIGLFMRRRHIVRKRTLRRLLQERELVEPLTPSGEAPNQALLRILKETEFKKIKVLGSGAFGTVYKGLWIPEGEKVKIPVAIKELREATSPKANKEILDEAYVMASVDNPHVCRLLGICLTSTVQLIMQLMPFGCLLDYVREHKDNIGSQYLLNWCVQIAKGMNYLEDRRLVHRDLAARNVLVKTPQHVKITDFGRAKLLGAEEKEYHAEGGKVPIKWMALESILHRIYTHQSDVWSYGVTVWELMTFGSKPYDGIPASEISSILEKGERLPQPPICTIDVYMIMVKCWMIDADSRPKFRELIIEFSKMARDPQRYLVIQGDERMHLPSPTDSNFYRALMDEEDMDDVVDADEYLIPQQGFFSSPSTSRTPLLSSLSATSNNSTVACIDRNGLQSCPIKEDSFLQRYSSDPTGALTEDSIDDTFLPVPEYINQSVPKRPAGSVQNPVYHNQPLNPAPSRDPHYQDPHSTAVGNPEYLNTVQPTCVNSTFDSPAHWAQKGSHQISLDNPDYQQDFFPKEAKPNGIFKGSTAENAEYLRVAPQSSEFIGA
Sequence of EGFR wt (P00533 25-1210): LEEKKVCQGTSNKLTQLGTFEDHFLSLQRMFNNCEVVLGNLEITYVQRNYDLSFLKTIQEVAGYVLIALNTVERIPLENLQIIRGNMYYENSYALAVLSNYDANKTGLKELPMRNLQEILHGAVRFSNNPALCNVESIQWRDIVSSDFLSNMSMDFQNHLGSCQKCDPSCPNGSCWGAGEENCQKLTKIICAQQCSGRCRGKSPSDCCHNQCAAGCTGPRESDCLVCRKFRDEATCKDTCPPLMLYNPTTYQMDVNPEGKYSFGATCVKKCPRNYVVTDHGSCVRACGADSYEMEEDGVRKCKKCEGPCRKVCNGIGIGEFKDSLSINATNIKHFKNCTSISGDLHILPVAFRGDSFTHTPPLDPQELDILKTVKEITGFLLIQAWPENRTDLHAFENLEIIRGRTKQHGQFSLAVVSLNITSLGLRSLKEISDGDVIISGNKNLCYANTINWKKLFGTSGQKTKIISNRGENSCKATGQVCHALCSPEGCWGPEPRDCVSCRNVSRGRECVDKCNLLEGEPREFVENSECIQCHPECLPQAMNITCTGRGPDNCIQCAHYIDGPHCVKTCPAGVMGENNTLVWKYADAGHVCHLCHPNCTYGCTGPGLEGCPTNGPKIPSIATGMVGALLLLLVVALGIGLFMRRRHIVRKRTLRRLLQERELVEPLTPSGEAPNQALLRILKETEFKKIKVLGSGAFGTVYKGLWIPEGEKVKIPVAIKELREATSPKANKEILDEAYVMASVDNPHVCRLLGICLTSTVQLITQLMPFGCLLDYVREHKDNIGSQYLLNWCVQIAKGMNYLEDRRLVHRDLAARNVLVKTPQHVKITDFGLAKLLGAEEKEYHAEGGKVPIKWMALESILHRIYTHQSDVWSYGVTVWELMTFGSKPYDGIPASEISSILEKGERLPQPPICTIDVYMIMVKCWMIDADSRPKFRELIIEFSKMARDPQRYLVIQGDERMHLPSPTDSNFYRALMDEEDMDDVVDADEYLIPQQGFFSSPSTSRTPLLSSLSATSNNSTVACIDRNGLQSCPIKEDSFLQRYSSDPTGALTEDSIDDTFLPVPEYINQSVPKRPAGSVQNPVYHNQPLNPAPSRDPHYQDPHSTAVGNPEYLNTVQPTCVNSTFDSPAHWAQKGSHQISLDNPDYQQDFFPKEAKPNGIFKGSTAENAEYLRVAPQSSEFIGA

The term IC50 denotes the concentration that gives 50% inhibition. As to `C=CC(=O)Nc1cc(-c2c(-c3ccc(OCCN4CCCC4)cc3)[nH]c3ncc(C(=O)OC(C)C)cc23)ccc1C` [Example 158, isopropyl 3-(3-acrylamido-4-methylphenyl)-2-(4-(2-(pyrrolidin-1-yl)ethoxy)phenyl)-1H-pyrrolo[2,3-b]pyridine-5-carboxylate], the IC50 against HER2 INS YVMA was at most 100 nM; against EGFR T790ML858R, at most 100 nM; against EGFR wt, at most 100 nM; in the series with H1975, 100 to 500 nM; in the series on A431, 1000 to 100000 nM. Besides, the GI50 in series [1] and in series [2] was 100 to 500 nM each time. Moreover, in series [3], the “Stability in presence of mouse liver microsomes without cofactor NADPH [% remaining after 50 min]” value is over 99 % remaining after 50 min.

On to `C=CC(=O)N1CCc2ccc(-c3c(-c4ccc(CN5CCOCC5)cc4)[nH]c4nccc(Cl)c34)cc21` [Example 68, 1-(6-(4-chloro-2-(4-(morpholinomethyl)phenyl)-1H-pyrrolo[2,3-b]pyridin-3-yl)indolin-1-yl)prop-2-en-1-one], for which the IC50 at HER2 INS YVMA was at most 100 nM; against EGFR T790ML858R, at most 100 nM; on EGFR wt, at most 100 nM; in the series with H1975, 100 to 500 nM; in the series with A431, 1000 to 100000 nM. The GI50 lay within 500 to 1000 nM in series [1] and 1000 to 10000 nM in series [2]. Besides, in series [3], the “Stability in presence of mouse liver microsomes without cofactor NADPH [% remaining after 50 min]” value is on record as over 99 % remaining after 50 min.

Regarding `C=CC(=O)Nc1cc(-c2c(-c3ccc(N4CCN(C)CC4)cc3)[nH]c3ncc(C(=O)NC(C)C)cc23)ccc1C` [Example 119, 3-(3-acrylamido-4-methylphenyl)-N-isopropyl-2-(4-(4-methylpiperazin-1-yl)phenyl)-1H-pyrrolo[2,3-b]pyridine-5-carboxamide], the IC50 against HER2 INS YVMA is at most 100 nM; on EGFR T790ML858R it was at most 100 nM; on EGFR wt it was at most 100 nM; in the series with H1975 it was 500 to 1000 nM; with A431, 500 to 1000 nM. Besides, the GI50 in series [1] and in series [2] was 100 to 500 nM each time. Moreover, the “Stability in presence of mouse liver microsomes without cofactor NADPH [% remaining after 50 min]” value in series [3] was over 99 % remaining after 50 min.

On to `C=CC(=O)Nc1cc(-c2c(-c3ccc(N4CCN(C)CC4)cc3)[nH]c3ncc(C(=O)OC(C)C)cc23)cc(F)c1C` [Example 165, isoproyl 3-(3-acrylamido-5-fluoro-4-methylphenyl)-2-(4-(4-methylpiperazin-1-yl)phenyl)-1H-pyrrolo[2,3-b]pyridine-5-carboxylate 2,2,2-trifluoroacetate], for which the IC50 was at most 100 nM against HER2 INS YVMA; at most 100 nM at EGFR T790ML858R; at most 100 nM on EGFR wt; 100 to 500 nM with H1975; 1000 to 100000 nM with A431. For the same compound, the GI50 in series [1] and in series [2] was 100 to 500 nM each time. Also, the “Stability in presence of mouse liver microsomes without cofactor NADPH [% remaining after 50 min]” value in series [3] is listed as over 99 % remaining after 50 min.

With `Cc1ccc(-c2c(-c3ccc(N4CCN(C)CC4)cc3)[nH]c3nccc(Cl)c23)cc1NC(=O)CCl` [Example 146, 2-chloro-N-(5-(4-chloro-2-(4-(4-methylpiperazin-1-yl)phenyl)-1H-pyrrolo[2,3-b]pyridin-3-yl)-2-methylphenyl)acetamide 2,2,2-trifluoroacetate], the IC50 on HER2 INS YVMA was at most 100 nM; against EGFR T790ML858R it was at most 100 nM; at EGFR wt, at most 100 nM; in the series on H1975, at most 100 nM; in the series on A431, 100 to 500 nM. The GI50 in series [1] and in series [2] was 100 to 500 nM each time. For the same compound, in series [3], the “Stability in presence of mouse liver microsomes without cofactor NADPH [% remaining after 50 min]” value worked out at 9 % remaining after 50 min.

As to `C=CC(=O)Nc1cc(-c2c(-c3ccc(N4CCN(C)CC4)nc3)[nH]c3nccc(Cl)c23)ccc1C` [Example 19, N-(5-(4-chloro-2-(6-(4-methylpiperazin-1-yl)pyridin-3-yl)-1H-pyrrolo[2,3-b]pyridin-3-yl)-2-methylphenyl)acrylamide], the IC50 against HER2 INS YVMA is 100 to 500 nM; against EGFR T790ML858R, at most 100 nM; against EGFR wt, at most 100 nM; with H1975 it was 100 to 500 nM; in the series on A431, 1000 to 100000 nM. Besides, the GI50 in series [1] and in series [2] was 500 to 1000 nM each time. Moreover, in series [3], the “Stability in presence of mouse liver microsomes without cofactor NADPH [% remaining after 50 min]” value was over 99 % remaining after 50 min.

Turning to `C=CC(=O)Nc1cc(-c2c(-c3ccc(N4CCN(CC)CC4)cc3)[nH]c3nccc(Cl)c23)ccc1C` [Example 40, N-(5-(4-chloro-2-(4-(4-ethylpiperazin-1-yl)phenyl)-1H-pyrrolo[2,3-b]pyridin-3-yl)-2-methylphenyl)acrylamide], the IC50 is at most 100 nM on HER2 INS YVMA; at most 100 nM against EGFR T790ML858R; at most 100 nM against EGFR wt; at most 100 nM with H1975; 100 to 500 nM in the series on A431. Also, the GI50 in series [1] and in series [2] was at most 100 nM throughout. Further, in series [3], the “Stability in presence of mouse liver microsomes without cofactor NADPH [% remaining after 50 min]” value was over 99 % remaining after 50 min.

Consider `C=CC(=O)N1CCc2ccc(-c3c(-c4ccc(N5CCN(C(C)C)CC5)cc4)[nH]c4nccc(Cl)c34)cc21` [Example 62, 1-(6-(4-chloro-2-(4-(4-isopropylpiperazin-1-yl)phenyl)-1H-pyrrolo[2,3-b]pyridin-3-yl)indolin-1-yl)prop-2-en-1-one], for which the IC50 on HER2 INS YVMA was at most 100 nM; at EGFR T790ML858R, at most 100 nM; against EGFR wt, at most 100 nM; in the series on H1975, at most 100 nM; in the series on A431 it was 500 to 1000 nM. For the same compound, the GI50 in series [1] and in series [2] was 100 to 500 nM each time. Moreover, the “Stability in presence of mouse liver microsomes without cofactor NADPH [% remaining after 50 min]” value in series [3] is reported as over 99 % remaining after 50 min.

With `C=CC(=O)N1CCOc2ccc(-c3c(-c4ccc(N5CCN(CC)CC5)cc4)[nH]c4nccc(Cl)c34)cc21` [Example 99, 1-(6-(4-chloro-2-(4-(4-ethylpiperazin-1-yl)phenyl)-1H-pyrrolo[2,3-b]pyridin-3-yl)-2H-benzo[b][1,4]oxazin-4(3H)-yl)prop-2-en-1-one], the IC50 at HER2 INS YVMA is at most 100 nM; at EGFR T790ML858R it was at most 100 nM; on EGFR wt, at most 100 nM; in the series with H1975, 100 to 500 nM; with A431 it was 1000 to 100000 nM. The GI50 in series [1] and in series [2] was 100 to 500 nM each time. Further, the “Stability in presence of mouse liver microsomes without cofactor NADPH [% remaining after 50 min]” value in series [3] is on record as over 99 % remaining after 50 min.

For the compound `C=CC(=O)N1CCc2ccc(-c3c(-c4ccc(N5CCN(C)CC5)nc4)[nH]c4nccc(Cl)c34)cc21` [Example 70, 1-(6-(4-chloro-2-(6-(4-methylpiperazin-1-yl)pyridin-3-yl)-1H-pyrrolo[2,3-b]pyridin-3-yl)indolin-1-yl)prop-2-en-1-one], the IC50 at HER2 INS YVMA was at most 100 nM; against EGFR T790ML858R, at most 100 nM; at EGFR wt it was at most 100 nM; with H1975, 100 to 500 nM; with A431 it was 500 to 1000 nM. The GI50 in series [1] lay within 100 to 500 nM; in series [2], 500 to 1000 nM. Besides, the “Stability in presence of mouse liver microsomes without cofactor NADPH [% remaining after 50 min]” value in series [3] was over 99 % remaining after 50 min.

As for `C=CC(=O)N1CCc2ccc(-c3c(-c4ccc(N(C)CCN(C)C)cc4)[nH]c4nccc(Cl)c34)cc21` [Example 65, 1-(6-(4-chloro-2-(4-((2-(dimethylamino)ethyl)(methyl)amino)phenyl)-1H-pyrrolo[2,3-b]pyridin-3-yl)indolin-1-yl)prop-2-en-1-one], the IC50 against HER2 INS YVMA is at most 100 nM; against EGFR T790ML858R, at most 100 nM; at EGFR wt it was at most 100 nM; in the series with H1975 it was at most 100 nM; in the series with A431, 500 to 1000 nM. Also, the results for the GI50 in series [1] and in series [2] were 100 to 500 nM and 500 to 1000 nM, respectively. Moreover, in series [3], the “Stability in presence of mouse liver microsomes without cofactor NADPH [% remaining after 50 min]” value was over 99 % remaining after 50 min.
